In assay [1] the test system is GC3M(-). In words: Compound was tested for the inhibition of thymidine kinase deficient human adenocarcinoma GC3M(-) cell growth.
In assay [2] the test system is L1210. As to the kind of experiment: Compound was tested for the inhibition of mouse L1210 leukemia cell growth.
The test system of assay [3] is CCRF-CEM. As to the kind of experiment: Compound was tested for the inhibition of human CCRF-CEM leukemia cell growth.
Assay [4] has as its system GC3M(-). In words: Compound was evaluated for cellular growth inhibition in thymidine kinase deficient human adenocarcinoma GC3M(-) cell line.
Assay [5] deals with Thymidylate synthase (Escherichia coli, UniProt C3SWJ7).
Chain of Thymidylate synthase (C3SWJ7 whole entry): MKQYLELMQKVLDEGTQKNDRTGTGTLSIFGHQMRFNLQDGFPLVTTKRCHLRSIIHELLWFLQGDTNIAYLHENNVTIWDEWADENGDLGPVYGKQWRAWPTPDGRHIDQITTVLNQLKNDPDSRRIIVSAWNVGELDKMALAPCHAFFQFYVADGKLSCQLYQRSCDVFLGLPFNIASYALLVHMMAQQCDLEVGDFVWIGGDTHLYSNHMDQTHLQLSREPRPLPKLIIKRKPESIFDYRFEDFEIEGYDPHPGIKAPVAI
Description: Inhibition of Escherichia coli Thymidylate synthase (TS)

Molecules are shown by their SMILES.

For `Nc1nc2cc3c(cc2[nH]1)N(Cc1ccc(S(=O)(=O)N2CCOCC2)cc1)CCC3`, the IC50 (in general, the concentration at which inhibition is half-maximal) in assay [1] was determined as 8.6 µM; in assay [2], 4 µM; in assay [3], 4 µM.
Take `Nc1nc2cc3c(cc2[nH]1)N(Cc1ccc(C(=O)NC(CCC(=O)O)C(=O)O)cc1)CCC3` (configuration not stated): the IC50 was above 50 µM in assay [4], 20 µM in assay [2] and 40 µM in assay [3].
On to `CNc1nc2cc3c(cc2[nH]1)N(Cc1ccc(S(=O)(=O)c2ccccc2)cc1)CCC3`, for which the IC50 in assay [1] was above 5 µM; in assay [2], 3 µM; in assay [3] it was 3.3 µM. Further, in assay [5], the Ki (as a rule, a dissociation constant, usually derived from enzyme kinetics or from competition with a known ligand) is 8.5 µM.
The matching figures for `COc1ccc(S(=O)(=O)c2ccc(CN3CCCc4cc5nc(C)[nH]c5cc43)cc2)cc1`: 4.1 µM, 2.8 µM, 8 µM and 1.3 µM.
For the molecule `Nc1nc2cc3c(cc2[nH]1)N(Cc1ccc(S(=O)(=O)c2ccc(O)cc2)cc1)CCC3`, the half-maximal inhibitory concentration (IC50) was above 50 µM in assay [4], 12 µM in assay [2] and 22 µM in assay [3].
Take `COc1ccc(S(=O)(=O)c2ccc(CN3CCCc4cc5c(cc43)nc(N)n5C)cc2)cc1`: the results for the IC50 in assay [1], in assay [2] and in assay [3] were 3 µM, 0.5 µM and 0.9 µM, respectively. Moreover, in assay [5], the affinity, expressed as Ki, was 0.5 µM.
Take `COc1ccc(S(=O)(=O)c2ccc(CN3CCCc4cc5[nH]c(N)nc5cc43)cc2)cc1`: the IC50 was determined as 9 µM in assay [1], 2.6 µM in assay [2] and 5.1 µM in assay [3].
In the case of `CSc1nc2cc3c(cc2[nH]1)N(Cc1ccc(S(=O)(=O)c2ccccc2)cc1)CCC3`, the IC50 in assay [1], in assay [2] and in assay [3] was above 10 µM throughout. Besides, the Ki in assay [5] is above 3 µM.
On to `Nc1nc2cc3c(cc2[nH]1)N(Cc1ccc(S(=O)(=O)c2ccccc2)cc1)CCC3`, for which the half-maximal inhibitory concentration (IC50) in assay [1] is above 5 µM.
As to `COc1ccc(S(=O)(=O)c2ccc(CN3CCCc4cc5c(cc43)nc(C)n5C)cc2)cc1`, the values for the IC50 in assay [1], in assay [2] and in assay [3] were above 5 µM, 1.05 µM and 1.8 µM, respectively. The molecule also displayed a Ki in assay [5] of 5.2 µM.
On to `Nc1nc2cc3c(cc2[nH]1)CCCC3Sc1ccc(S(=O)(=O)c2ccccc2)cc1` (configuration not stated), for which the IC50 is above 10 µM in assay [1], 7.5 µM in assay [2] and above 10 µM in assay [3].
As to `O=S(=O)(c1ccc(CN2CCCc3cc4[nH]cnc4cc32)cc1)N1CCNCC1`, the IC50 in assay [1] is 43 µM.
Consider `Nc1nc2cc3c(cc2[nH]1)N(Cc1ccc2cc(CO)ccc2c1)CCC3`, for which the values for the IC50 in assay [1], in assay [2] and in assay [3] were above 5 µM, 3.1 µM and above 5 µM, respectively.
Turning to `Nc1nc2cc3c(cc2[nH]1)N(Cc1ccc(S(=O)(=O)N2CCNCC2)cc1)CCC3`, the results for the IC50 in assay [1] and in assay [2] were above 50 µM and 2 µM, respectively.

The record behind these values is ChEMBL document CHEMBL1125390, “Design and synthesis of novel 6,7-imidazotetrahydroquinoline inhibitors of thymidylate synthase using iterative protein crystal structure analysis” (J Med Chem, 1992).
